# Assay results: patent US20040253255A1, “Biological compositions and methods for treatment of nasopharyngeal cancer” (priority 2003, published 2004)
# Where two headings read alike, the source gives them in different places.
# Assays:
# [1] = system: human nasopharyngeal cancer; assay type: in vivo, mice; details: for Number of live animals remaining in the groups after 30 days of treatment: mice, 30 per group
# Method: The biological composition comprising […] per ml of activated and conditioned yeast cells of the strain Saccharomyces carlsbergensis Hansen strain AS2.116 was prepared by the methods described in Section 5.1 and subsections therein.
# The animals were prepared in a similar manner as described in Section 8.1.
# (§1) The mice injected with tumor cells were divided into 4 experimental groups of ten mice per group and one control group. The four experimental groups were triplicated (i.e., using a total of 120 mice in the experimental groups). In group 2AY, the mice received 0.3 ml of the biological composition once per day. In group 2NY, the mice received 0.3 ml of the untreated yeast cells once per day. In group 2CTX, the mice were injected intravenously with 30 mg of cyclophosphamide (CTX) per kg body weight per day. In group 2CK1, the mice received 0.3 ml of physiological saline once per day.
# (§2) The mice received the biological compositions, untreated yeast cells, CTX or saline on the same day as the tumor cells were transplanted. The mice in group 2CK2 also started receiving saline on the same day as the other four groups. The biological compositions, untreated yeast cells and saline were administered orally by a feeding tube and the CTX by intravenous injection for 30 consecutive days. The mice were observed over 6 months from the day of tumor inoculation and survival was recorded. The weight of the mice and the weight of the tumor were determined by standard techniques.
# [2] = system: human nasopharyngeal cancer; assay type: in vivo; details: tumor-bearing mice, 30 consecutive days of treatment, sacrificed on 31st day
# Method: The mice injected with tumor cells were divided into 4 experimental groups of ten mice per group and one control group. The four experimental groups were triplicated (i.e., using a total of 120 mice in the experimental groups).
# The mice in group CK2 also started receiving saline on the same day as the other four groups. The biological compositions, untreated yeast cells and saline were administered orally by a feeding tube and the CTX by intravenous injection for 30 consecutive days.
# [3] = system: human nasopharyngeal cancer; experiment: rat model of human nasopharyngeal cancer, survival time; assay type: in vivo, Wistar rats; details: for Number of live animals remaining in the groups after 21 days of treatment: rats, 30 per group
# Method: (§3) The biological composition comprising 10^8 cells per ml of activated and conditioned yeast cells of the strain Saccharomyces carlsbergensis Hansen strain AS2.116 was prepared by the methods described in Section 5.1 and subsections therein.
# The animals were prepared in a similar manner as described in Section 6.1.
# as §1, with “rats transplanted” for “mice injected”, “rats” for “mice”, “2.0” for “0.3”, “2TSPA,” for “2CTX,”, “1.5” for “with 30”, “thiotepa (TSPA)” for “cyclophosphamide (CTX)”
# as §2, with “rats” for “mice”, “TSPA” for “CTX”, “21” for “30”
# [4] = system: human nasopharyngeal cancer; experiment: rat model of human nasopharyngeal cancer, growth of the tumor; assay type: in vivo; details: tumor-bearing Wistar rats, 21 consecutive days of treatment, sacrificed on 22nd day
# Method: as §3
# The animals used to generate the nasopharyngeal cancer cells for the experiments were Wistar rats, male and female, 190 to 210 gram in body weight. The rats were starved for 24 hours before the surgery.
# Human nasopharyngeal cancer samples (obtainable from Cancer Institute, The Chinese Academy of Medical Sciences, Beijing, China) were carefully selected before, during, and after surgery in order to ensure engraftment occurred at the original position in the rat. The nasopharyngeal cancer samples were obtained from patients who have not received any radiation, chemotherapy or immune enhancement treatment. Nasopharyngeal cancer samples were divided into sections of about 1 mm^3 in size and immediately stored in RPMI-1640 suspension after removal from the human patient.
# The animals were generally anaesthetized. […]
# The rats received the biological compositions, untreated yeast cells, TSPA or saline on the same day as the tumor cells were transplanted. […] On the 22nd day from tumor inoculation, the rats were sacrificed and the weight of the rats as well as the weight of the tumor were determined by standard techniques.
# [5] = 0 month after cessation of treatment
# [6] = 1 month after cessation of treatment
# [7] = 2 months after cessation of treatment
# [8] = 3 months after cessation of treatment
# [9] = 4 months after cessation of treatment
# [10] = 5 months after cessation of treatment
# [11] = 6 months after cessation of treatment
# [12] = mice that survived, observed over 6 months
# [13] = rats that survived, observed over 6 months
smiles,measurement,setting,value
"O=P1(N(CCCl)CCCl)NCCCO1 (stereo not drawn) [CTX, cyclophosphamide]",Number of live animals remaining in the groups after 30 days of treatment,[1]; [5],30
same,Number of live animals remaining in the groups after 30 days of treatment,[1]; [6],27
same,Number of live animals remaining in the groups after 30 days of treatment,[1]; [7],17
same,Number of live animals remaining in the groups after 30 days of treatment,[1]; [8],11
same,Number of live animals remaining in the groups after 30 days of treatment,[1]; [9],3
same,Number of live animals remaining in the groups after 30 days of treatment,[1]; [10],0
same,Number of live animals remaining in the groups after 30 days of treatment,[1]; [11],0
same,survival of mice,[1]; observed over 6 months,all died during the experiment
same,mean weight of mice and standard deviation,[2],19.7 ± 2.4 g
same,mean weight of tumor nodules and standard deviation,[2],0.86 ± 0.13 g
"S=P(N1CC1)(N1CC1)N1CC1 [TSPA, thiotepa]",mean weight of mice and standard deviation,[1]; [12],all animals dead
same,mean weight of tumor nodules and standard deviation,[1]; [12],all animals dead
same,survival of rats,[3]; from injection of tumor cells,all died after four months from injection of tumor cells
same,mean weight of rats and standard deviation,[3]; [13],all animals dead
same,mean weight of tumor nodules and standard deviation,[3]; [13],all animals dead
same,Number of live animals remaining in the groups after 21 days of treatment,[3]; [5],30
same,Number of live animals remaining in the groups after 21 days of treatment,[3]; [6],26
same,Number of live animals remaining in the groups after 21 days of treatment,[3]; [7],24
same,Number of live animals remaining in the groups after 21 days of treatment,[3]; [8],17
same,Number of live animals remaining in the groups after 21 days of treatment,[3]; [9],7
same,Number of live animals remaining in the groups after 21 days of treatment,[3]; [10],0
same,Number of live animals remaining in the groups after 21 days of treatment,[3]; [11],0
same,mean weight of rats and standard deviation,[4],207 ± 3.8 g
same,mean weight of tumor nodules and standard deviation,[4],1.6 ± 0.74 mg
